{"source": "paper PMC2697495", "about": "(The Journal of pharmacy and pharmacology, 2008)", "key": {"[1]": {"biological_target": "UGT1A9 (Homo sapiens, UniProt O60656)", "sequence (O60656 26-530)": "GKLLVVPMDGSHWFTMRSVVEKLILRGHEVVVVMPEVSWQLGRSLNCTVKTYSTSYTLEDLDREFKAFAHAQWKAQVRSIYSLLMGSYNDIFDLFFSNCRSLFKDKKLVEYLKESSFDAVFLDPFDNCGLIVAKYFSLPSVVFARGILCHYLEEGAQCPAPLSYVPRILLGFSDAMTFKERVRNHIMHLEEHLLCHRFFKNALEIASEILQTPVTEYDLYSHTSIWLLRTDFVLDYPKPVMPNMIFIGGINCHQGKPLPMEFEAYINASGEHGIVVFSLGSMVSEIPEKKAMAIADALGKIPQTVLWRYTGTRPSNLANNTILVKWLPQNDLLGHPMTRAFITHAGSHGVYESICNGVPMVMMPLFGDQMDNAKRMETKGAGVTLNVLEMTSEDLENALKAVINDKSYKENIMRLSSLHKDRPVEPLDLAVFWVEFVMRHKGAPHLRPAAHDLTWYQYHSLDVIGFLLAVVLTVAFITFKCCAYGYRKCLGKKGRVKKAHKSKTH", "assay": "Salicylic acid", "assay_type": "biochemical", "conditions": "5 mM salicylic acid, n=3"}, "[2]": {"biological_target": "T1, UGT1A3 (Homo sapiens, UniProt P35503)", "T1 sequence (P35503 29-534)": "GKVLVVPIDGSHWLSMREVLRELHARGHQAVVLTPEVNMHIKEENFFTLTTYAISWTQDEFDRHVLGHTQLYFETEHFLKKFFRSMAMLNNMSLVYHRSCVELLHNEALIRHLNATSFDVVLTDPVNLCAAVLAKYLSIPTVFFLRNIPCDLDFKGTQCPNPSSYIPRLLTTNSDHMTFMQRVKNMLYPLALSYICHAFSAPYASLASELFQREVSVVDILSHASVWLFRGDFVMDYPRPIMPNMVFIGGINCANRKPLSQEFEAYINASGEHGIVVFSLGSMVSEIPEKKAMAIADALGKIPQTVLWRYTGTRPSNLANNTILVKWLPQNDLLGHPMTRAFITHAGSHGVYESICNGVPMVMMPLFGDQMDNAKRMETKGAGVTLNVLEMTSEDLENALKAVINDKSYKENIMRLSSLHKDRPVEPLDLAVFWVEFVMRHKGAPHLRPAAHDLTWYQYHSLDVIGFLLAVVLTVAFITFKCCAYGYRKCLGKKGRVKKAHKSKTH", "assay": "Estradiol-3 glucuronidation by recombinant UGT1A3", "assay_type": "biochemical", "conditions": "for Estradiol-3 glucuronidation, % of the control activity (measured at 0 mM): UGT1A3, 100 μM estradiol, n=3"}, "[3]": {"system": "endogenous β-glucuronidase, insect cell expressed UGT2B7", "conditions": "recombinant UGT2B7 preparation; 10 mM saccharolactone"}, "[4]": {"system": "endogenous β-glucuronidase, insect cell expressed UGT1A1", "conditions": "recombinant UGT1A1 preparation; 10 mM saccharolactone"}, "[5]": {"system": "pooled human liver microsomes (pHLMs)", "assay": "AZT glucuronidation by pHLMs", "assay_type": "biochemical", "conditions": "pHLM, 500 μM AZT, n=3"}, "[6]": {"system": "HLMs", "conditions": "5 mM saccharolactone, ref Alkharfy & Frye 2001; cited from earlier work"}, "[7]": {"system": "pooled human liver microsomes (pHLMs)", "assay": "Codeine glucuronidation by pHLMs", "assay_type": "biochemical", "conditions": "for Codeine glucuronidation, % of the control activity (measured at 0 mM): pHLM, 1 mM codeine, n=3"}, "[8]": {"assay": "Effect of saccharolactone on pH of 50 mM potassium phosphate incubation buffer", "assay_type": "physicochemical"}, "[9]": {"biological_target": "T2, UGT2B7 (Homo sapiens, UniProt P16662)", "T2 sequence (P16662 24-529)": "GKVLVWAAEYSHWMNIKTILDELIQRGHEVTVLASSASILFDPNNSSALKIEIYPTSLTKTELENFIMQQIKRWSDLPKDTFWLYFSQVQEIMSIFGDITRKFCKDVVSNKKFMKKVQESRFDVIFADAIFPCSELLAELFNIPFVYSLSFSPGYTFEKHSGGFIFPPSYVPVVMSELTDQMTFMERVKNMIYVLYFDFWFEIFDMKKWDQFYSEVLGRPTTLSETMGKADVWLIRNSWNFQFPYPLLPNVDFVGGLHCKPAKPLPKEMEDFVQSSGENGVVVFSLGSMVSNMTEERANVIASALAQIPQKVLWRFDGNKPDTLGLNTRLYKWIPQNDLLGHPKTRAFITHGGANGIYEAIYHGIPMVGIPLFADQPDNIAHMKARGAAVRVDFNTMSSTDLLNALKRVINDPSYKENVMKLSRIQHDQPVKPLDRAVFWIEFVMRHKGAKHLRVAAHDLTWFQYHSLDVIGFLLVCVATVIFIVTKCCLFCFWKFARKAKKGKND", "assay": "Codeine glucuronidation by recombinant UGT2B7", "assay_type": "biochemical", "conditions": "1 mM codeine, n=3"}, "[10]": {"biological_target": "T3, UGT1A6 (insect) (Homo sapiens, UniProt P19224)", "T3 sequence (P19224 27-532)": "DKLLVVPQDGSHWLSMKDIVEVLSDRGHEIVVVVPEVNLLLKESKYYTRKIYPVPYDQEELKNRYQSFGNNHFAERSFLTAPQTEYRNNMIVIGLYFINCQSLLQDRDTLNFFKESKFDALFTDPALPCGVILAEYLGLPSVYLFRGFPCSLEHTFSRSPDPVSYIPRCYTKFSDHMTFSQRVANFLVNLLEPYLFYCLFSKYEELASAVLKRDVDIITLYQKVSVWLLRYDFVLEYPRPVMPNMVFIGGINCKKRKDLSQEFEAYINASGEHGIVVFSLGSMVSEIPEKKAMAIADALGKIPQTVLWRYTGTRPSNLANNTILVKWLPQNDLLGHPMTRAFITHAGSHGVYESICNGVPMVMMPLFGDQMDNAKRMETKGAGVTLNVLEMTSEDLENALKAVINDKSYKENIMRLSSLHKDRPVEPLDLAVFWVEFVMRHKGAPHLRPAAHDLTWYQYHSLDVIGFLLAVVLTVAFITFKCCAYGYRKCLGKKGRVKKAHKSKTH", "assay": "5-HT glucuronidation by recombinant UGT1A6", "assay_type": "biochemical", "conditions": "for 5-HT glucuronidation, % of the control activity (measured at 0 mM): UGT1A6 (insect), 4 mM 5-HT, n=3"}, "[11]": {"biological_target": "T2, UGT2B7", "assay": "AZT glucuronidation by recombinant UGT2B7", "assay_type": "biochemical", "conditions": "500 μM AZT, n=3"}, "[12]": {"system": "pooled human liver microsomes (pHLMs)", "assay": "Estradiol-3 glucuronidation by pHLMs", "assay_type": "biochemical", "conditions": "for Estradiol-3 glucuronidation, % of the control activity (measured at 0 mM): pHLM, 100 μM estradiol, n=3"}, "[13]": {"system": "rats", "conditions": "in vivo in rats; ref Brunelle and Verbeeck (1997); cited from earlier work"}, "[14]": {"system": "HLMs", "conditions": "5 mM saccharolactone, ref Kemp et al 2002; cited from earlier work"}, "[15]": {"biological_target": "T1, UGT1A3", "assay": "Estradiol-17 glucuronidation by recombinant UGT1A3", "assay_type": "biochemical", "conditions": "100 μM estradiol, n=3"}}, "note": "Marks after values point to notes of the source that are not given here.", "data": [{"smiles": "O=C(O)[C@@H](O)[C@H]1OC(=O)[C@H](O)[C@H]1O", "note": "[saccharolactone, D-saccharic acid 1,4-lactone]", "values": [{"measurement": "Salicylic Acid glucuronidation, % of the control activity (measured at 0 mM)", "setting": "[1]; 5 mM saccharolactone", "result": "96±7", "unit": "%"}, {"measurement": "Salicylic Acid glucuronidation, % of the control activity (measured at 0 mM)", "setting": "[1]; 20 mM saccharolactone", "result": "99±7", "unit": "%"}, {"measurement": "Estradiol-3 glucuronidation, % of the control activity (measured at 0 mM)", "setting": "[2]; 5 mM saccharolactone", "result": "92±18", "unit": "%"}, {"measurement": "Estradiol-3 glucuronidation, % of the control activity (measured at 0 mM)", "setting": "[2]; 20 mM saccharolactone", "result": "97±10", "unit": "%"}, {"measurement": "effect on estradiol glucuronidation", "setting": "[2]; recombinant UGT1A3", "result": "no effect"}, {"measurement": "inhibition of estradiol glucuronide hydrolysis", "setting": "[3]", "result": "effective in the inhibition of hydrolysis"}, {"measurement": "inhibition of estradiol glucuronide hydrolysis", "setting": "[4]", "result": "effective in the inhibition of hydrolysis"}, {"measurement": "AZT glucuronidation, % of the control activity (measured at 0 mM)", "setting": "[5]; 1 mM saccharolactone", "result": "96±2", "unit": "%"}, {"measurement": "AZT glucuronidation, % of the control activity (measured at 0 mM)", "setting": "[5]; 2 mM saccharolactone", "result": "98±2", "unit": "%"}, {"measurement": "AZT glucuronidation, % of the control activity (measured at 0 mM)", "setting": "[5]; 5 mM saccharolactone", "result": "94±2", "unit": "%"}, {"measurement": "AZT glucuronidation, % of the control activity (measured at 0 mM)", "setting": "[5]; 10 mM saccharolactone", "result": "94±3", "unit": "%"}, {"measurement": "AZT glucuronidation, % of the control activity (measured at 0 mM)", "setting": "[5]; 20 mM saccharolactone", "result": "94±1", "unit": "%"}, {"measurement": "decrease of acetaminophen glucuronidation", "setting": "[6]", "result": 45, "unit": "%"}, {"measurement": "Codeine glucuronidation, % of the control activity (measured at 0 mM)", "setting": "[7]; 1 mM saccharolactone", "result": "98±7", "unit": "%"}, {"measurement": "Codeine glucuronidation, % of the control activity (measured at 0 mM)", "setting": "[7]; 2 mM saccharolactone", "result": "97±4", "unit": "%"}, {"measurement": "Codeine glucuronidation, % of the control activity (measured at 0 mM)", "setting": "[7]; 5 mM saccharolactone", "result": "91±2 ^a %"}, {"measurement": "Codeine glucuronidation, % of the control activity (measured at 0 mM)", "setting": "[7]; 10 mM saccharolactone", "result": "95±5", "unit": "%"}, {"measurement": "Codeine glucuronidation, % of the control activity (measured at 0 mM)", "setting": "[7]; 20 mM saccharolactone", "result": "88±8", "unit": "%"}, {"measurement": "inhibition of codeine glucuronidation", "setting": "[7]; pHLMs, 5 mM saccharolactone, p<0.05", "result": 9, "unit": "%"}, {"measurement": "pH of incubation buffer after adding saccharolactone", "setting": "[8]; 20 mM saccharolactone in 50 mM potassium phosphate, initially pH 7.5", "result": 6.8}, {"measurement": "effect on pH of incubation buffer", "setting": "[8]; saccharolactone up to 5 mM in 50 mM potassium phosphate pH 7.5", "result": "minimal effect on pH"}, {"measurement": "Codeine glucuronidation, % of the control activity (measured at 0 mM)", "setting": "[9]; 5 mM saccharolactone", "result": "90±7", "unit": "%"}, {"measurement": "Codeine glucuronidation, % of the control activity (measured at 0 mM)", "setting": "[9]; 20 mM saccharolactone", "result": "90±3", "unit": "%"}, {"measurement": "5-HT glucuronidation, % of the control activity (measured at 0 mM)", "setting": "[10]; 5 mM saccharolactone", "result": "88±7", "unit": "%"}, {"measurement": "5-HT glucuronidation, % of the control activity (measured at 0 mM)", "setting": "[10]; 20 mM saccharolactone", "result": "96±0", "unit": "%"}, {"measurement": "effect on 5-hydroxytryptamine glucuronidation", "setting": "[10]; UGT1A6 expressed in insect cells, saccharolactone up to 20 mM", "result": "no effect"}, {"measurement": "AZT glucuronidation, % of the control activity (measured at 0 mM)", "setting": "[11]; 5 mM saccharolactone", "result": "102±2", "unit": "%"}, {"measurement": "AZT glucuronidation, % of the control activity (measured at 0 mM)", "setting": "[11]; 20 mM saccharolactone", "result": "102±8", "unit": "%"}, {"measurement": "Estradiol-3 glucuronidation, % of the control activity (measured at 0 mM)", "setting": "[12]; 1 mM saccharolactone", "result": "68±5", "unit": "%"}, {"measurement": "Estradiol-3 glucuronidation, % of the control activity (measured at 0 mM)", "setting": "[12]; 2 mM saccharolactone", "result": "84±1", "unit": "%"}, {"measurement": "Estradiol-3 glucuronidation, % of the control activity (measured at 0 mM)", "setting": "[12]; 5 mM saccharolactone", "result": "76±9 ^a %"}, {"measurement": "Estradiol-3 glucuronidation, % of the control activity (measured at 0 mM)", "setting": "[12]; 10 mM saccharolactone", "result": "67±5 ^a %"}, {"measurement": "Estradiol-3 glucuronidation, % of the control activity (measured at 0 mM)", "setting": "[12]; 20 mM saccharolactone", "result": "67±7 ^a %"}, {"measurement": "decrease in estradiol-3 glucuronidation activity", "setting": "[12]; pHLMs, 20 mM saccharolactone, p<0.05", "result": 33, "unit": "%"}, {"measurement": "effect on partial clearance of diflunisal acyl glucuronide", "setting": "[13]", "result": "increase"}, {"measurement": "effect on partial clearance of diflunisal phenol glucuronide", "setting": "[13]", "result": "little effect"}, {"measurement": "effect on raloxifene glucuronidation", "setting": "[14]", "result": "inhibited"}, {"measurement": "Estradiol-17 glucuronidation, % of the control activity (measured at 0 mM)", "setting": "[15]; 5 mM saccharolactone", "result": "90±14", "unit": "%"}, {"measurement": "Estradiol-17 glucuronidation, % of the control activity (measured at 0 mM)", "setting": "[15]; 20 mM saccharolactone", "result": "98±10", "unit": "%"}]}]}
